*1 amine or outer side, *2 acyl side, *3 side chain or, on linkers, in order; H or OH if unused. Where a SMILES comes first, the peptide text is derived from it. Side-chain parts run from the residue outwards. [ ]: non-standard residue; d: D form. The star is where a group is joined. C20 diacid = O=C(O)CCCCCCCCCCCCCCCCCCC(=O)*; γGlu = O=C(O)[C@H](CCC(=O)[*:2])N[*:1]; εLys = N[C@@H](CCCCN[*:1])C(=O)[*:2]; αMeL = CC(C)C[C@](C)(N)C(=O)O; AEEA = NCCOCCOCC(=O)O

One assay concerns the target T1, human CRHR1 (Homo sapiens, UniProt P34998).
T1 construct: expressed in transfected cells
T1 sequence (P34998 24-415): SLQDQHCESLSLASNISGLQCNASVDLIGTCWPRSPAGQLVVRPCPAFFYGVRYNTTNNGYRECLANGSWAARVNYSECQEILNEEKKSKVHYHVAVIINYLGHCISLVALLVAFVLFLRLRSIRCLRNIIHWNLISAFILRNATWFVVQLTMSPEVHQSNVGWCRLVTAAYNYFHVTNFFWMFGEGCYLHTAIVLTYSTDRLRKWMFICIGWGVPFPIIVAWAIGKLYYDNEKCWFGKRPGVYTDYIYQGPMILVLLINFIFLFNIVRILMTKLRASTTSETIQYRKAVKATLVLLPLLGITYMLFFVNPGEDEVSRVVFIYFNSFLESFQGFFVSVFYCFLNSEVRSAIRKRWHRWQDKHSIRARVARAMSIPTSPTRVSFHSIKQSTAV
Description: Human CRHR1 cAMP assay (HTRF) in HEK293 cells stably expressing human CRHR1. It counts as cell-based. The settings on record: HEK293 cells overexpressing human CRHR1; relative EC50, maximum 66 nM human UCN1; mean ± SE; read-out: hCRHR1 cAMP EC50 (pM, ± SE). The procedure: (§1) The corticotropin-releasing hormone (CRH) receptor 1 and 2 (CRHR1 and CRHR2) are GPCRs that were functionally coupled to Gs proteins. Stimulation of these receptors results in an increased production of intracellular cAMP, which can be detected using standard in vitro technologies. In vitro activity of peptides was measured by the amount of cAMP formed in human CRHR1 and CRHR2 overexpressed cells.
(§2) Human CRHR1 and CRHR2 receptors were stably expressed in human embryonic kidney cells (HEK293) under control of a pcDNA expression vector. The HEK293 cell line was cultured in DMEM 1× (Gibco, 93-0152DK) supplemented with 10% FBS, 1 mM sodium pyruvate, 1×MEM NEAA, 1× GlutaMAX and 10 mM HEPES. The plasmids of human CRHR1-pQCXIP (T7364) and human CRHR2b-R2683puro (T16761) DNA were transfected into HEK293 cells using Lipo fectAMINE 3000 Transfection reagent (Invitrogen, L3000001). After 20 days under selection, the mRNA levels from different clones were measured to confirm the expression of human CRHR1 and CRHR2 genes. To determine the function of over-expressed CRHR cells, the intracellular cAMP levels in response to human UCN1 and UCN2 were measured and compared to the expression of CRHR1 and CRHR2 mRNA in each clone.
(§3) Human CRHR1 cells were cultured in DMEM 1× (Gibco, 93-0152DK) supplemented with 10% FBS, 1 mM sodium pyruvate, 1×MEM NEAA, 1×GlutaMAX, 10 mM HEPES, and 800 μg/ml G418. Human CRHR2 cells were cultured at the same media (DMEM 1×, 10% FBS, 1 mM sodium pyruvate, 1×MEM NEAA, 1×GlutaMAX, 10 mM HEPES) in the presence of 0.5 ug/mL puromycin. Cultured cells were grown to 90% confluency and harvested. The cells were frozen at 10×10e6/ml in a mixture of […] fetal bovine serum plus 7% DMSO and stored in liquid nitrogen until use.
(§4) On the day of the assay, the frozen cells were thawed and diluted in assay buffer (Phenol Red free MEM (Corning, 17-305-CV, lot #32121010), 0.1% Casein (Sigma C4765, lot #SLCG2120), 5 mM HEPES pH 7.4 containing 0.25 mM IBMX). 10 ul of human CRHR1 cells (25,000 cells) or 10 μL of human CRHR2 cells (5,000 cells) were dispensed into each well of white poly-D-lysine coated 384-well plates (Corning cat #354661). Test compounds diluted in DMSO were added (200 nL/well) in a 1:3 dilution series using ECHO acoustic liquid handler (Beckman). The mixture of cells and test compounds were incubated at 37° C. for 1 hour for the hCRHR1 plate, while the CRHR2 plates were incubated at room temperature for 30 min.
(§5) The amount of intracellular cAMP was quantitated using HTRF technology (Homogeneous Time Resolved Fluorescence; Cisbio) as per vendor instructions. Briefly, 10 uL CAMP-d2 conjugate and 10 uL anti-CAMP-cryptate conjugate in lysis buffer were incubated with the treated cells at room temperature for 60 min. The HTRF signal was immediately detected using an Envision plate reader (Perkin-Elmer) to calculate the ratio of fluorescence at 665 to 620 nm.
(§6) Raw fluorescence data for concentration curves of the peptides in Table 2 and Table 3 were converted to cAMP amount (pmol/well) using a cAMP standard curve generated for each experiment.

A further assay addresses T2, human CRHR2 (Homo sapiens, UniProt Q13324).
T2 construct: expressed in transfected cells
T2 sequence (Q13324 1-438 isoform Q13324-2): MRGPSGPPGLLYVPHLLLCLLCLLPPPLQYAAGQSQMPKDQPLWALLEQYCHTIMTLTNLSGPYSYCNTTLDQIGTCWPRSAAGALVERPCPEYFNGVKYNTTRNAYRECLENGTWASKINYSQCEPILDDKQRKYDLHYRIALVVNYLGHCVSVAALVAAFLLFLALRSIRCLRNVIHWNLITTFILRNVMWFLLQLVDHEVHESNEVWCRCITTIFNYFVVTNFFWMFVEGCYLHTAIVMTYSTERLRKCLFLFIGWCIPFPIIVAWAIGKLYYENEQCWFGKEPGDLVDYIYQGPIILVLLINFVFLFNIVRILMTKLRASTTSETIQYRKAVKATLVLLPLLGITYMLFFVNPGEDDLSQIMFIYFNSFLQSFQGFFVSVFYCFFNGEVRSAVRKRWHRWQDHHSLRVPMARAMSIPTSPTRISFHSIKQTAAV
Briefly: Human CRHR2 cAMP assay (HTRF) in HEK293 cells stably expressing human CRHR2. Format: cell-based. The settings on record: HEK293 cells overexpressing human CRHR2; relative EC50, maximum 10 nM human UCN2; mean ± SE; read-out: hCRHR2 cAMP EC50 (pM, ± SE). The procedure:
as §1, §2, §3, §4, §5, §6
(cAMP levels reflect the balance of adenylyl cyclase and phosphodiesterase activity.)

For the compound `CC[C@H](C)[C@H](NC(C)=O)C(=O)N[C@H](C(=O)N[C@H](C(=O)N[C@@H](CO)C(=O)N[C@@](C)(CC(C)C)C(=O)N[C@@H](CC(=O)O)C(=O)N[C@@H](C(=O)N1CCC[C@H]1C(=O)N[C@H](C(=O)NCC(=O)N[C@@](C)(CC(C)C)C(=O)N[C@@H](CC(C)C)C(=O)N[C@@H](CCC(N)=O)C(=O)N[C@H](C(=O)N[C@@H](CCCCN)C(=O)N[C@@H](CC(C)C)C(=O)N[C@@H](CCC(=O)O)C(=O)N[C@@H](CCC(N)=O)C(=O)N[C@@H](CCC(=O)O)C(=O)N[C@@H](CCCNC(=N)N)C(=O)N[C@@H](C)C(=O)N[C@@H](CCC(=O)O)C(=O)N[C@@H](CCCCN)C(=O)N[C@@H](C)C(=O)N[C@@H](CCCNC(=N)N)C(=O)N[C@@H](CCC(N)=O)C(=O)N[C@@H](CCC(N)=O)C(=O)N[C@@H](C)C(=O)N[C@@H](CCCCNC(=O)COCCOCCNC(=O)[C@@H](N)CCCCNC(=O)CC[C@H](NC(=O)CCCCCCCCCCCCCCCCCCC(=O)O)C(=O)O)C(=O)N[C@@H](CCC(=O)O)C(=O)N[C@@H](CC(N)=O)C(=O)N[C@H](C(=O)N[C@@H](CCC(=O)O)C(=O)N[C@H](C(=O)N[C@@H](CC(C)C)C(=O)N[C@@H](C)C(=O)N[C@@H](CCC(N)=O)C(=O)N[C@H](C(N)=O)C(C)C)[C@@H](C)CC)[C@@H](C)O)[C@@H](C)CC)[C@@H](C)O)C(C)C)[C@@H](C)O)C(C)C` [SEQ ID NO: 32, Ac-IVTS αMeL D (D-Val) PTG αMeL LQIKLEQERAEKARQQAK((2-[2-(2-Amino-ethoxy)-ethoxy]-acetyl)-ϵK-γE-CO-(CH2)18-CO2H)ENTEILAQV-NH2] (Ac-IVTS[αMeL]D[dV]PTG[αMeL]LQIKLEQERAEKARQQAK([AEEA-εLys-γGlu-C20 diacid])ENTEILAQV-NH2), the figures for the half-maximal effective concentration (EC50) on human CRHR1 and at human CRHR2 were above 1e+07 pM and 5.4 ± 0.7 pM, respectively.

Take `CC[C@H](C)[C@H](NC(C)=O)C(=O)N[C@H](C(=O)N[C@H](C(=O)N[C@@H](CO)C(=O)N[C@@](C)(CC(C)C)C(=O)N[C@@H](CC(=O)O)C(=O)N[C@@H](C(=O)N1CCC[C@H]1C(=O)N[C@H](C(=O)NCC(=O)N[C@@](C)(CC(C)C)C(=O)N[C@@H](CC(C)C)C(=O)N[C@@H](CCC(N)=O)C(=O)N[C@H](C(=O)N[C@@H](CCCCN)C(=O)N[C@@H](CC(C)C)C(=O)N[C@@H](CCC(=O)O)C(=O)N[C@@H](CCC(N)=O)C(=O)N[C@@H](CCC(=O)O)C(=O)N[C@@H](CCCNC(=N)N)C(=O)N[C@@H](C)C(=O)N[C@@H](CCC(=O)O)C(=O)N[C@@H](CCCCN)C(=O)N[C@@H](C)C(=O)N[C@@H](CCCNC(=N)N)C(=O)N[C@@H](CCC(N)=O)C(=O)N[C@@H](CCC(N)=O)C(=O)N[C@@H](C)C(=O)N[C@@H](CCCCNC(=O)COCCOCCNC(=O)CC[C@H](NC(=O)[C@@H](N)CCCCNC(=O)CCCCCCCCCCCCCCCCCCC(=O)O)C(=O)O)C(=O)N[C@@H](CCC(=O)O)C(=O)N[C@@H](CC(N)=O)C(=O)N[C@H](C(=O)N[C@@H](CCC(=O)O)C(=O)N[C@H](C(=O)N[C@@H](CC(C)C)C(=O)N[C@@H](C)C(=O)N[C@@H](CCC(N)=O)C(=O)N[C@H](C(N)=O)C(C)C)[C@@H](C)CC)[C@@H](C)O)[C@@H](C)CC)[C@@H](C)O)C(C)C)[C@@H](C)O)C(C)C` [SEQ ID NO: 33, Ac-IVTS αMeL D (D-Val) PTG αMeL LQIKLEQERAEKARQQAK((2-[2-(2-Amino-ethoxy)-ethoxy]-acetyl)-γE-ϵK-CO-(CH2)18-CO2H)ENTEILAQV-NH2] (Ac-IVTS[αMeL]D[dV]PTG[αMeL]LQIKLEQERAEKARQQAK([AEEA-γGlu-εLys-C20 diacid])ENTEILAQV-NH2): the EC50 at human CRHR1 was found to be 1.1e+06 pM; at human CRHR2, 4.6 ± 0.6 pM.

As for `CC[C@H](C)[C@H](NC(C)=O)C(=O)N[C@H](C(=O)N[C@H](C(=O)N[C@@H](CO)C(=O)N[C@@](C)(CC(C)C)C(=O)N[C@@H](CC(=O)O)C(=O)N[C@@H](C(=O)N1CCC[C@H]1C(=O)N[C@H](C(=O)NCC(=O)N[C@@](C)(CC(C)C)C(=O)N[C@@H](CC(C)C)C(=O)N[C@@H](CCC(N)=O)C(=O)N[C@H](C(=O)N[C@@H](CCCCN)C(=O)N[C@@H](CC(C)C)C(=O)N[C@@H](CCC(=O)O)C(=O)N[C@@H](CCC(N)=O)C(=O)N[C@@H](CCC(=O)O)C(=O)N[C@@H](CCCNC(=N)N)C(=O)N[C@@H](C)C(=O)N[C@@H](CCC(=O)O)C(=O)N[C@@H](CCCCN)C(=O)N[C@@H](C)C(=O)N[C@@H](CCCNC(=N)N)C(=O)N[C@@H](CCC(N)=O)C(=O)N[C@@H](CCC(N)=O)C(=O)N[C@@H](C)C(=O)N[C@@H](CCCCNC(=O)[C@@H](N)CCCCNC(=O)COCCOCCNC(=O)CC[C@H](NC(=O)CCCCCCCCCCCCCCCCCCC(=O)O)C(=O)O)C(=O)N[C@@H](CCC(=O)O)C(=O)N[C@@H](CC(N)=O)C(=O)N[C@H](C(=O)N[C@@H](CCC(=O)O)C(=O)N[C@H](C(=O)N[C@@H](CC(C)C)C(=O)N[C@@H](C)C(=O)N[C@@H](CCC(N)=O)C(=O)N[C@H](C(N)=O)C(C)C)[C@@H](C)CC)[C@@H](C)O)[C@@H](C)CC)[C@@H](C)O)C(C)C)[C@@H](C)O)C(C)C` [SEQ ID NO: 34, Ac-IVTS αMeL D (D-Val) PTG αMeL LQIKLEQERAEKARQQAK(ϵK-(2-[2-(2-Amino-ethoxy)-ethoxy]-acetyl)-γE-CO-(CH2)18-CO2H)ENTEILAQV-NH2] (Ac-IVTS[αMeL]D[dV]PTG[αMeL]LQIKLEQERAEKARQQAK([εLys-AEEA-γGlu-C20 diacid])ENTEILAQV-NH2), the EC50 is above 1e+07 pM on human CRHR1 and 4.9 ± 0.7 pM on human CRHR2.

In general, EC50 refers to the concentration needed to bring the measured effect to its halfway point.

For the origin of these results see patent US20250163119A1, “COMPOUNDS FOR THE TREATMENT OF DIABETES OR OBESITY” (Eli Lilly and Company, priority 2023, published 2025).
